Test results: article PMC3199867, “Targeting surface nucleolin with multivalent HB-19 and related Nucant pseudopeptides results in distinct inhibitory mechanisms depending on the malignant tumor cell type” (BMC Cancer, 2011)

Assays:
[1] = test system: surface/cytoplasmic nucleolin; experiment: Down regulation of surface/cytoplasmic nucleolin in MDA-MB 231 cells, immunoblotting; assay type: cell-based, human; conditions: MDA-MB 231, 10 μM, 16 hours, immunoblotting with mAb D3; nuclear nucleolin not affected
Description: Nucleolin was analyzed by immunoblotting using either the monoclonal antibody (mAb) D3 against nucleolin (kindly provided by Dr. J. S. Deng), or rabbit polyclonal antibodies directed against a synthetic peptide corresponding to the first 26 ([…]) and the last 16 ([…]) amino acid residues of human nucleolin as described before. […] The reacting bands were visualized with an enhanced chemiluminescence (ECL) reagent and by exposure to autoradiography film (Amersham Biosciences). In some experiments, the presence of actin was monitored as a control with mAb anti-actin A-4700 (Sigma). […]
Figure 2 HB-19 and related Nucant pseudopeptides antagonize surface nucleolin and trigger its down regulation. […] At 48 h post-infection, the β-galactosidase activity was measured in cell extracts directly to monitor HIV entry (Methods). The abscissa gives % Activity of surface nucleolin calculated from the optical density measurements at 570 nm. […] Cytoplasmic (containing cytoplasmic as well as surface nucleolin) and nuclear extracts were analyzed by immunoblotting using mAb D3 as described (Methods)(panels Surface/cytoplasmic NCL, Nuclear NCL). […] HeLa cells in the absence (histogram C) or presence of 1, 2, 5, and 10 μM of N6L were cultured for 7 hours before preparation of cell extracts and immunoblotting as in section B. The intensity of nucleolin protein bands was quantified by using the NIH image software. […]

T29 = experiment: Cell death (trypan blue uptake); assay type: cell-based, murine; conditions: for % Cell death After 24 hours: T29, freshly passaged, N6 or N7 20 μM, mean of at least 2 independent experiments; for IC50: T29 cells, 0-20 μM, read-out: Cell death: IC50 24 hours post-passage
Description: (§1) Human breast (MDA-MB-231, MDA-MB-435 [37]), prostate (LNCaP, from American Type Culture Collection, ATCC, Rockville, MD), and cervical (HeLa) epithelial cancer cells were grown in DMEM-glutamax medium (Gibco Invitrogen, Cergy-Pontoise, France) containing GlutaMAX™, 4.5 g/l glucose and supplemented with 10% heat-inactivated (56°C for 30 min) fetal bovine serum (FBS; Hyclone, Thermo Fisher Scientific, Inc). Human SW480 cells are derived from a grade 3-4 colon carcinoma, while the highly metastatic counterpart SW620 is established from the lymph node of a person. Both SW480 and SW620 cells (obtained from Francis Raul, IRCAD) are highly tumorigenic in nude mice. They were cultured in D-MEM, 10% FCS. The murine melanoma TIII cell line was obtained from Armelle Prévost-Blondel. Murine T29 lymphoma cells, obtained from Philippe Kastner (CNRS, Strasbourg), have been established from Ik^L/L tumors from mice carrying a hypomorphic mutation (Ik^L/L) in the Ikaros gene encoding a transcription factor that regulates lymphocyte differentiation, and acts also as a tumor suppressor in T lymphocytes. The T29 cells were cultured in RPMI medium containing 25 mM Hepes pH 7.6, 1 mM sodium pyruvate, and 10% FCS. Human leukemia cell lines, Jurkat (acute T cell leukemia), HuT 78 (cutaneous T lymphocyte), RAJI (Burkitt lymphoma), and HL60 (promyelocytic leukemia) were cultured in RPMI-1640 medium (Gibco) containing GlutaMAX™, and supplemented with 10% heat-inactivated FBS as described before. The wild-type Chinese hamster ovary cell line (CHO K1) was purchased from American Type Culture Collection (ATCC; Rockville, MD). The CHO LRP1-null cell line (CHO-13-5-1) was kindly provided by D. Strickland [47]. They were cultured in Ham's F12K medium. All cells were cultured with 10% (v/v) heat inactivated (56°C, 30 min) fetal bovine serum (FBS) (Roche Molecular Biochemicals, Indianapolis, IN) and 50 international units/mL penicillin-streptomycin (Invitrogen). Cell death was monitored conveniently by uptake of the trypan blue dye due to plasma membrane permeability of dying and/or dead cells.

TIII = experiment: Cell death (trypan blue uptake); assay type: cell-based, murine; conditions: subconfluent, N6 or N7 20 μM, mean of at least 2 independent experiments
Description: as §1

HuT 78 = experiment: Cell death (trypan blue uptake); assay type: cell-based, human; conditions: HuT 78, freshly passaged; N6 or N7 20 μM; trypan blue uptake; mean of at least 2 independent experiments
Description: as §1, with “cells. […]” for “cells.”

MDA-MB 435 = experiment: Cell death (trypan blue uptake); assay type: cell-based, human; conditions: MDA-MB 435, subconfluent, N6 or N7 20 μM, mean of at least 2 independent experiments
Description: as §1

| Substance | level of surface/cytoplasmic nucleolin [1] | % Cell death After 24 hours (T29) | IC50 (T29) | % Cell death After 24 hours (TIII) | % Cell death After 24 hours (HuT 78) | % Cell death After 24 hours (MDA-MB 435) |
| --- | --- | --- | --- | --- | --- | --- |
| Ac-Lys-Aib-Gly-Lys-Aib-Gly-Lys-Aib-Gly-Lys-Aib-Gly-Lys-Aib-Gly-Lys-Aib-Gly-CONH2 [Nucant N6, Presents hexavalently the pseudo-tripeptide Lysψ(CH2N)-Pro-Arg coupled to the polypeptide template containing Aib] | almost completely abolished | 45% | 20 µM | < 5% | 44% | < 5% |
| Ac-KAKPGKAKPGKAKPG-NH2 [Nucant N7, Presents hexavalently the pseudo-tripeptide Lysψ(CH2N)-Pro-Arg coupled to a similar template as in HB-19] | almost completely abolished | 45% | 20 µM | < 5% | 44% | < 5% |
